Read-outs that look alike come from different tables or passages of the source.
Legend:
Dehal1 = target: T1, Dehal1 (Homo sapiens, UniProt Q6PHW0); assay: In vitro Dehal1 inhibition assay (inhibition of 125I-MIT deiodination in homogenates of DEHAL1-transfected HEK293 cells); format: biochemical
T1 construct: expressed in transfected cells; host or cells: HEK293
T1 sequence (Q6PHW0 1-289): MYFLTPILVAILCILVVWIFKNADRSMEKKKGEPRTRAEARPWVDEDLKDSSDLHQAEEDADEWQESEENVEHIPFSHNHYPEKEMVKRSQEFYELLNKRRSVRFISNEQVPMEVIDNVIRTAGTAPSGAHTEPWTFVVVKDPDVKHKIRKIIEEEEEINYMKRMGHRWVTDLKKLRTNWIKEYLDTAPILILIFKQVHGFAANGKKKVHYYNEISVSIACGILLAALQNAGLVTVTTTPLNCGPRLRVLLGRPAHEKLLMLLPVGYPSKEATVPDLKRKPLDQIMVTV
Description: Human embryonic kidney (HEK293) cells were grown in Dulbecco's modified Eagle medium (Gibco) supplemented with 10% fetal calf serum and 0.1 mM flavin mononucleotide (FMN, MP Biochemicals) in 6-well plates. At 50% confluency, cells were transfected with 1 µg of wild-type or mutant DEHAL1 plasmid or empty pcDNA3.1 plasmid, using Fugene6 (Roche). After 24 h incubation, cells were washed with 1 ml PBS and collected in 0.5 ml PED buffer (0.1 M phosphate, pH 7.2, 2 mM EDTA, 1 mM dithiothreitol) per well and kept on ice. Samples were sonicated twice for 10 sec using Soniprep150, frozen on dry ice-ethanol and stored at -80 °C. For experiments testing FMN-response, culture medium was supplemented with 0-2 mM FMN.
The experiments follow described methods to determine the MIT deiodination capacity of Dehal1-transfected cells (8), adding the candidate chemicals to test their capacity to inhibit such reaction. Basically, labelled [^125I]MIT was prepared by radioiodination of L-tyrosine (Sigma-Aldrich) with ^125I - (specific activity: 15 Ci/mg, Amersham Biosciences) using the chloramine-T method and purified by chromatography on cation-exchange resin (Dowex 50WX2-200, Sigma-Aldrich). […] Incubations contained […] [^125I]MIT, 0.1 µM unlabeled MIT and 10-25 µg cell homogenate protein in a final volume of 0.1 ml PED buffer. Reactions were started by the addition of NADPH (final concentration 0.1 mM), and the mixtures were incubated for 60 min at 37°C. Reactions were stopped by the addition of 0.9 ml of 10% acetic acid on ice. Samples were applied to 2 ml Dowex 50WX2-200 columns, and successively eluted with 3x1 ml 10% acetic acid (containing eluted iodide), 1 ml water, and 4×1ml 1 M NH4OH (containing iodotyrosines). Radioactivity was measured in each fraction in a NE1600 gamma counter (NE Technologies) and percentage deiodination was calculated. Protein concentrations in cell homogenates were measured by Bradford's assay; iodotyrosine deiodinase activity was corrected for the slight 1251 - production in empty pcDNA3.1-transfected cell homogenates and expressed per mg protein.
For the general screen of inhibition potential of each compound, 10 µM unlabeled chemicals tested (Sigma-Aldrich) were added to the incubation mixture together with […] unlabeled MIT with no further modifications on the protocol above. Said chemical tested were: Tetrabromobisphenol A (TBBPA), Bisphenol A (BPA), Pentachlorophenol (PCP), tetraiodophenol (TIP), Tetrabromophenol (TBP), tetrachlorophenol (TCP), tetraafluorophenol (TFP), Di-iodo-nitro-Pheol (DINP), Di-chloro-nitrophenol (DCNP), Dibromophenol (DBP), Diclorophenol (DCP), iodophenol (IP), Bromophenol (BP), Fluorophenol (FP), phenol (P), Tyrosien(Tyr), mononitrotyrosine (MNT), monochlorotyrosine (MCT), Monoiodotyrosine (MIT), Diiodotyrosine (DIT). As negative controls: empty pcDNA-transfected cells, DMSO, NaOH and Buffer.
Crude deiodination capacity obtained in individual chemical-containing mixture was calculated, including the vehicle (DMSO)-containing mixture. Percentage inhibition of each compound was determined with respect to the vehicle containing mixture. For inhibition curves of particular compounds, equimolar concentrations of unlabeled MIT (0, 0.1, 1, 10, 100 µM) and BPA, TBBPA, PCP and MNT were used, and % inhibition of individual compounds was calculated as above.

thyroid hormone axis = assay: In vivo administration to mice: hormonal and biochemical effects in plasma and urine; conditions: for UIC / UIC % variation: urine
Description: Mice. Female wild type mice from C57BI/6 J strain were purchased from Charles River company. Animals were maintained under standard conditions of temperature (22-24°C), humidity (40-50%), 12-12 hours of dark/light cycle, water and rodent diet ad libitum. Five months old female mice were acclimatized prior to the experiment and handled based on animal bioethical protocols. The experimental procedures were approved by the Research Ethical Committee of the Autonomous University of Madrid and the competent department of Comunidad de Madrid. Tetrabromobisphenol A powder (TBBPA, 97% purity) obtained through Sigma-Aldrich was dissolved in a vehicle containing 25% ethanol and 75% of peanut oil. A TBBPA dose of 500 mg/kg of body weight was injected subcutaneously for 7 days. Blood and urine collection were performed at the end of the experiment (Fig. 1).
Blood, urine and tissue collection. At day 7, blood was collected from cardiac puncture in heparinized tubes and centrifuged (2000 g for 10 minutes) to isolate plasma. Urine was collected using hydrophobic sand (Coastline Global, USA). Samples were kept at -20°C until used. For tissue isolation, mice were kept under deep anesthesia (Sevorane) and euthanized by cervical dislocation.
Previously published methods were modified to allow the simultaneous quantification of MIT, DIT, T3, T4.
Sample preparation: 100 µL of urine/plasma were added with suitable amounts of stable isotope-labeled internal standards (5.4 pmol 13C9-MIT, 4.0 pmol 13C9-DIT, 2.8 pmol 13C6-T3, 2.4 pmol 13C6-T4), vortexed, stored 30 min at room temperature to equilibrate, and deproteinized with the addition of 300µL of cold-acetone and the storage at 4°C for 30 min. After centrifugation at 22780 × g for 10 min, supernatants were dried at 40 °C under a gentle stream of nitrogen, derivatized with 200 µL of 3.0 N hydrochloric acid in n-butanol and incubated for 45 min at 60 °C, for the formation of the corresponding butyl esters of tyrosines, thyroid hormones, and their internal standards. After further evaporation to dryness, the sample was reconstituted with 500 µL of 0,1 M potassium buffer (pH=4) and loaded onto Agilent (Santa Clara, CA, USA) Bond-Elut Certify 130 mg SPE cartridges, to perform the extraction according to the procedure described by Saba et al.. The eluate was dried once again under nitrogen, the dried residue was reconstituted with 100 µL of acetonitrile/0.1 M hydrochloric acid (50/50 by volume), and 1µL of it was injected into the HPLC-MS-MS system. Calibration curves ranged from 0.1 to 100.0 ng/mL and were daily prepared by serial dilution in methanol and derivatized with samples.
Instrument layout: AB-Sciex (Concord, Ontario, Canada) QTRAP 6500+ triple quadrupole mass spectrometer with ESI source, coupled to an Agilent (Santa Clara, CA, USA) 1290 UHPLC system, fitted with a 110 Å, 2x50 mm, 3µm particle size, Gemini C18 column (Phenomenex, Torrance, CA).
Operative conditions: the chromatographic separation was carried out at 400 µL/min as a flow rate, using methanol/acetonitrile (20/80, by volume) added with 0.1% formic acid (solvent A) and water containing 0.1% formic acid (solvent B). The elution gradient was the following: 95 % solvent B from 0 to 3 min; 35 % solvent B from 3 to 8.5 min; 0 % solvent B from 8.5 to 9 min; 0 % solvent B from 9 to 11 min; 95 % solvent B from 11 to 14 min (equilibration step). […] Three transitions were used to monitor each compound and internal standard: that one with the highest signal/noise ratio was used as a quantifier (Q), while the other two as qualifiers (q).

[1] = dose-response inhibition assay, 0-100 µM
[2] = general screen, compound at 10 µM
[3] = MNT 1mg/Kg b.w./day, for 7 days
[4] = vs WT, MNT 1mg/Kg b.w./day, for 7 days
[5] = read-out: inhibition of Dehal1 activity
[6] = TBBPA 500 mg/kg b.w/day subcutaneously for 7 days
[7] = TBBPA 500 mg/kg b.w/day subcutaneously for 7 days, plasma
[8] = vs WT, TBBPA 500 mg/kg b.w/day for 7 days
[9] = vs WT, TBBPA 500 mg/kg b.w/day for 7 days, plasma

With `CC(C)(c1ccc(O)cc1)c1ccc(O)cc1` [BPA, Bisphenol A, reference compound] the inhibition capacity (Dehal1; [1]) was “no inhibition capacity”.
For `N[C@@H](Cc1cc(I)c(O)c(I)c1)C(=O)O` [DIT, Diiodotyrosine, reference compound], the “inhibition of labeled-MIT deiodination” value (Dehal1; [2]) was “maximal inhibition”.
`N[C@@H](Cc1ccc(O)c(I)c1)C(=O)O` [MIT, Monoiodotyrosine, reference compound] was tested, and the “inhibition of labeled-MIT deiodination” value (Dehal1; [2]) was “maximal inhibition”.
In the case of `N[C@@H](Cc1ccc(O)c([N+](=O)[O-])c1)C(=O)O` [MNT, 3-L-nitrotyrosine, reference compound], the IC50 (Dehal1; [1]) is reported as less than 0.01 µM, the “inhibition of labeled-MIT deiodination” value (Dehal1; [2]) is reported as “maximal inhibition” and the DIT-urine (thyroid hormone axis; [3]) is reported as 0.29 ± 0.06 ng/mL. The MIT-urine (thyroid hormone axis; [3]) was 1.94 ± 0.13 ng/mL, the MIT/DIT urine (thyroid hormone axis; [3]) was 6,69 and the T3 (thyroid hormone axis; [3]) was 0.27 ± 0.02 ng/mL. For the same molecule, the T4 (thyroid hormone axis; [3]) was 25.35 ± 1.2 ng/mL, the TSH (thyroid hormone axis; [3]) was 1.07 ± 0.07 mU/L and the UIC (thyroid hormone axis; [3]) was 198 ± 14.43 µg/L. The DIT-urine % variation (thyroid hormone axis; [4]) was -19%, the MIT-urine % variation (thyroid hormone axis; [4]) was “+46%” and the “MIT/DIT urine % variation” value (thyroid hormone axis; [4]) was “+80%”. For the same molecule, the T3 % variation (thyroid hormone axis; [4]) was -5%, the T4 % variation (thyroid hormone axis; [4]) was “+8%” and the TSH % variation (thyroid hormone axis; [4]) was “+7%”. For the same molecule, the UIC % variation (thyroid hormone axis; [4]) was “+47%”.
`Oc1c(Cl)c(Cl)c(Cl)c(Cl)c1Cl` [PCP, Pentachlorophenol] gave an IC50 (Dehal1; [1]) of roughly 25 µM, an inhibition at 10 µM (Dehal1; [5]) of 22% and an inhibition at 100 µM (Dehal1; [5]) of 78%. It also gave an inhibition at 10 µM (Dehal1; read-out: inhibition of labeled-MIT deiodination) of 55%.
`CC(C)(c1cc(Br)c(O)c(Br)c1)c1cc(Br)c(O)c(Br)c1` [TBBPA, Tetrabromobisphenol A] showed an IC50 (Dehal1; [1]) of roughly 25 µM, an inhibition at 10 µM (Dehal1; dose-response inhibition assay, 10 µM, read-out: inhibition of Dehal1 activity) of 18% and an inhibition at 100 µM (Dehal1; dose-response inhibition assay, 100 µM, read-out: inhibition of Dehal1 activity) of 78%. The inhibition at 10 µM (Dehal1; general screen, compound at 10 µM, read-out: inhibition of labeled-MIT deiodination) was 37%, the T3 (thyroid hormone axis; TBBPA 500 mg/kg b.w/day for 7 days, plasma) was “remained unchanged” and the DIT-plasma (thyroid hormone axis; [6]) was 0.06 ± 0.01 ng/mL. The DIT-urine (thyroid hormone axis; [6]) was 0.23 ± 0.04 ng/mL, the MIT-plasma (thyroid hormone axis; [6]) was 0.21 ± 0.01 ng/mL and the MIT-urine (thyroid hormone axis; [6]) was 2.53 ± 0.11 ng/mL. The MIT/DIT plasma (thyroid hormone axis; [6]) was 3,5, the MIT/DIT urine (thyroid hormone axis; [6]) was 11 and the T4 (thyroid hormone axis; [7]) was 14.45 ± 1.65 ng/mL. For the same molecule, the TSH (thyroid hormone axis; [7]) was 1.3 ± 0.025 mU/L, the UIC (thyroid hormone axis; [6]) was 170.6 ± 13.9 µg/L and the DIT-plasma % variation (thyroid hormone axis; [8]) was -62%. For the same molecule, the DIT-urine % variation (thyroid hormone axis; [8]) was -36%, the MIT-urine % variation (thyroid hormone axis; [8]) was “+73%” and the “MIT/DIT plasma % variation” value (thyroid hormone axis; [8]) was “+250%”. The “MIT/DIT urine % variation” value (thyroid hormone axis; [8]) was “+172%”, the T4 % variation (thyroid hormone axis; [9]) was -38% and the TSH % variation (thyroid hormone axis; [9]) was “+23%”. The UIC % variation (thyroid hormone axis; [8]) was “+127%”.

From EP4160211A1, “DETECTING THE EXPOSURE OF A SUBJECT TO A THYROID DISRUPTING CHEMICAL, EVEN BEFORE HYPOTHYROIDISM APPEARS” (Moreno Navarro, José Carlos, priority 2021, dated 2023)
